For experiment [1], the system named is EZH2. As to the kind of experiment: Western blot of EZH2 in tumor from MDA-MB-468 xenograft mice. Type of experiment: in vivo, Nu/Nu mice. On the procedure:
(A)(B) Cells were treated with indicated concentration of YC-1 for 24 h (A) or 3 μM of YC-1 for indicated time (B). Cells were harvested and performed with western blotting analysis. […] The levels of protein expression were quantitated and shown under blots. (C) Cells were transfected with EZH2 shRNA for 0, 1, 2, 3, and 4 days and collected for determination of cell viability (left) and protein expression (right). (D)(E) After 4 days of EZH2 knockdown, cells were incubated with 3 μM YC-1 for 4 h and detected cell viability (D) and protein contents (E). (F) Tumor specimens were isolated and protein was extracted for western blot analysis.
(§1) Cells were lysed in PBS containing proteinase inhibitor and phosphatase inhibitors and sonication. Protein concentration was measured using the Bio-Rad protein assay kit (Bio-Rad Laboratories, Hercules, Calif., USA). Lysate protein was separated by electrophoresis of SDS-PAGE and transferred to Immobilon P membrane (EMD Millipore). […] The band intensities were analyzed and quantified by the Multi Gauge software (Fuji Photo Film).
Nu/Nu female mice (four weeks old) were from National Laboratory Animal Center, Taipei, Taiwan. […] Tumor size and body weights of mice were measured once per 3 days and tumor volume (mm^3) was calculated as the equation: length×(width)×0.5. […]

The subject of another experiment is CDK1. As to the kind of experiment: Western blot of CDK1 activation. Type of experiment: cell-based, human. As to conditions: 3 μM YC-1. On the procedure: (§2) (A) MDA-MB-468 cells were incubated with 3 μM YC-1 for indicated time. Cells were harvested for the detection of phospho-Akt (Ser473), Akt, and PCNA. (B) Cells were pretreated with LY294002 (LY, 10 μM) for 1 h followed by 3 μM YC-1 induction for 6 h. (C) MDA-MB-468 cells were incubated with 3 μM YC-1 for indicated time. Cells were harvested for the detection of phospho-CDK1 (Thr161), CDK1, phospho-EZH2 ([…]), EZH2, and β-actin expression with western blot analysis. Levels of EZH2 phosphorylation were calculated by phospho-EZH2 normalized by total EZH2. (D) Cells were treated with YC-1 for 6 h in the absence or presence of roscovitine (Rosc, 20 μM). Cells were harvested and analyzed by western blotting for protein expression. (E) CDK1 knockdown of MDA-MB-468 cells were induced with 3 μM YC-1 for 4 h and followed by western blot analysis.
as §1

Experiment [2] has as its system EZH2. Briefly: EZH2 ubiquitination assay. As to conditions: 3 μM YC-1. Type of experiment: cell-based, human. On the procedure: (A) Cells were pretreated with cyclohexamide (30 μM) for 1 h and followed by induction with vehicle (DMSO) or YC-1 (3 μM) for indicated time. Cells were harvested for detection of protein expression. (B)(C) Cells were incubated with 3 μM YC-1 for 6 h in the presence of vehicle, 3 μM MG-132 or 30 μM NH4Cl. Cells were harvested for detection of protein expression (B) or cell viability assay (C). The levels of protein expression were quantitated and shown under blots. (D) After treatment of 3 μM YC-1 for indicated time, cells were harvested and lysed for immunoprecipitation and western blot analysis described in Materials and Methods.
Cells were lysed with MLB buffer (25 mM HEPES, pH 7.5, 150 mM NaCl, 1% Igepal CA-630, 10 mM MgCl2, 1 mM EDTA, 2% glycerol, 1 mM Na3VO4, 1 mM NaF, 1 mM PMSF, 10 μg/ml of leupeptin, aprotinin, and pepstatin A). After sonication, cell lysates were centrifugated at 12,000×g for 10 min at 4° C. Supernatants were incubated with anti-EZH2 antibody (BD Biosciences) and protein A Sepharose beads (GE Health Care) overnight at 4° C. After washing with MLB buffer, precipitated proteins were boiled in 1× Laemmli sample buffer and then separated with SDS-PAGE. The ubiquitination levels of EZH2 were recognized by using anti-Ubiquitn monoclonal antibody.

For a further experiment, the system named is MDA-MB-157. Briefly: MTT cell viability assay. Type of experiment: cell-based, human. On the procedure:
Human breast cancer cells, MDA-MB-468, MDA-MB-157, MDA-MB-231, MDA-MB-453, and Hs578T, and immortalized mammary epithelial cell lines, 184A1 and MCF-10A, were obtained from American Type Culture Collection (Manassas, Va., USA). MDA-MB-468, MDA-MB-157, MDA-MB-231, and MDA-MB-453 were cultured in DMEM/F12 medium supplemented with 10% FBS, 100 U/ml penicillin, and 100 μg/ml streptomycin. Hs578T was cultured in RPMI 1640 medium containing 10% FBS, 2 mM L-glutamine, 100 U/ml penicillin, and 100 μg/ml streptomycin. 184A1 and MCF-10A were cultured in DMEM/F12 medium supplemented with 5% horse serum, 0.5 μg/ml hydrocortisone, 10 μg/ml insulin, 20 ng/ml epidermal growth factor, 0.1 μg/ml cholera enterotoxin, 2 mM L-glutamine, 100 U/ml penicillin, and 100 μg/ml streptomycin. All cells were maintained in a humidified incubator containing 5% CO2. For hypoxia treatment, cells were incubated in a chamber flushed with 1% 02, 5% CO2, and 94% N2 at 37° C.
Cell viability was measured by 3-(4,5-Dimethyl-2-thiazolyl)2,5-diphenyl-2H-tetrazolium bromide (MTT) assay.
On the technique in general: Tetrazolium dyes change colour on reduction, which living cells bring about.

The test system of another experiment is EZH2 Tyr487. Briefly: Western blot of EZH2 phosphorylation. Type of experiment: cell-based, human. As to conditions: 3 μM YC-1. How it is done: as §2, §1
For the next experiment, the system named is EGFR. Briefly: Western blot of EGFR phosphorylation and expression. Type of experiment: cell-based, human. On the procedure: Cells were incubated with 3 μM YC-1 for indicated time. Cells were harvested and subjected to western blot analysis for the detection of protein expression. Cells were lysed in PBS containing proteinase inhibitor and phosphatase inhibitors and sonication. Protein concentration was measured using the Bio-Rad protein assay kit (Bio-Rad Laboratories, Hercules, Calif., USA). Lysate protein was separated by electrophoresis of SDS-PAGE and transferred to Immobilon P membrane (EMD Millipore). The membranes were incubated with appropriate primary antibodies and horseradish peroxidase-conjugated secondary antibodies (EMD Millipore). The signaling was visualized using Chemiluminescence substrate kit (EMD Millipore) and collected by the Luminesence image analyzer, LAS4000 (Fuji Photo Film Co., Tokyo, Japan). The band intensities were analyzed and quantified by the Multi Gauge software (Fuji Photo Film).
(In western blotting, separated proteins are transferred to a membrane and probed.)

In the case of `OCc1ccc(-c2nn(Cc3ccccc3)c3ccccc23)o1` [YC-1, 3-(5′-hydroxymethyl-2′-furyl)-1-benzyl indazole], the “EZH2 level in tumor” value in the experiment with EZH2 [1] was “decrease EZH2 level in tumor”. In the experiment with CDK1, the CDK1 activation entry is “could induce the activation”. The “ubiquitination of EZH2” value in the experiment with EZH2 [2] is “time-dependently promoted the ubiquitination of EZH2”. Besides, the “effect on cell viability” value in the experiment on MDA-MB-157 is reported as “no effect”. In the experiment on EZH2 Tyr487, the “phosphorylation of EZH2 Tyr487” value is “no effect”. Further, in the experiment with EGFR (3 μM YC-1), the EGFR phosphorylation result is recorded as “rapidly induced EGFR phosphorylation”. Besides, the EGFR protein expression entry with EGFR (3 μM YC-1, after 6 h treatment) is reported as “significant decrease”.

Source of the values: US20140357688A1, “METHOD FOR INHIBITING EZH2 EXPRESSION IN BREAST CANCER CELLS” (Yung Shin Pharm. Ind. Co., Ltd., priority 2013, published 2014).
